Experimental findings from US8629100B2, “Method of inhibiting clostridium difficile by administration of oritavancin” (The Medicines Company, priority 2007, dated 2014) are described below.

Converted amounts (≈) assume the structure as drawn.

One test concerns C. difficile spores. Put plainly: Agar-based culture: spore recovery after antimicrobial exposure. Format: cell-based. As to conditions: 350 mg/L, 1 min and 30 min, filtered onto CAF, 48 h. How it is done: Antimicrobial-spore solutions were mixed, diluted (to sub-MIC) in sterile de-ionised water, filtered onto cellulose acetate filters (CAF, 0.45 μm) and washed. CAF were transferred onto Brazier's agar (pH 7)+5 mg/L lysozyme, and following anaerobic incubation (37° C., 48 h), % C. difficile spores (vs. control) were determined.

In test [1] the test system is genotypically distinct C. difficile (n = 33). Put plainly: Broth macrodilution MIC. Format: cell-based. As to conditions: for MIC range / MIC90 / MIC: BM, broth macrodilution; for MIC90 / MIC: Clostridioides difficile; for MIC: read-out: GEO MIC.
A further test concerns S. aureus NCTC 6571. The experiment in a line: Agar incorporation MIC against S. aureus NCTC 6571. Format: cell-based. The note with it: Staphylococcus aureus, NCTC6571; agar incorporation methodology.
For a further test, the system named is Oxford S. aureus. Put plainly: Antimicrobial-spore binding: washed exposed spores on S. aureus lawn (Example 3D). Format: cell-based, Staphylococcus aureus. The note with it: spores suspended in 350 mg/L; after 0, 1, 2, 4, 5, 6, 9 and 10 washes. How it is done: A further potential explanation for the failure to recover oritavancin-treated C. difficile spores from the above experiments (in addition to presence of the drug in cellulose acetate filters) is that oritavancin may be able to bind C. difficile spores and directly damage spores, or inhibit spore germination and/or outgrowth. A simple experiment was conducted in order to assess antimicrobial-spore binding:
Two solutions were prepared:
1) C. difficile spores (PCR ribotype 001, control), and
2) C. difficile spores suspended in 350 mg/L oritavancin (diluent: Tween-80-H2O).
Fresh blood agar was inoculated with a lawn of the Oxford S. aureus. In one replicate, C. difficile spores were centrifuged (16000 g, 5 min), the supernatants removed and pellets re-suspended in 500 μL of Tween-80-H2O. 10 μL of the re-suspended spore suspension was inoculated onto the surface S. aureus lawn.
In another replicate, C. difficile spore suspensions were washed a total of 10 times using this procedure and inoculated onto the surface of the S. aureus lawn.
In both replicates agar was incubated aerobically at 37° C. overnight, and then the presence or absence of zones of inhibition were recorded.

Test [2] has as its system C. difficile (CD) ATCC 43255. Put plainly: Hamster model of CDI, oral administration. Format: in vivo, Syrian golden hamsters. As to conditions: for Survival prolonged more than untreated animals: formulated in HPCD, gavage; for Mean survival time: ORI 100 mg/kg (HPCD), VA 50 mg/kg/day, oral, 5 days. The procedure: C. difficile (CD) ATCC 43255 was used in all experiments. CD spores were prepared for the infection by incubating CD cells on blood agar plate at 37° C. anaerobically for 7 days, to promote spore formation. The CD colonies were resuspended in phosphate buffered saline (PBS) and mixed with an equal volume of 100% ethanol for one hour. The spores were centrifuged, resuspended in PBS, aliquoted, and frozen at −20° C. Spores were diluted in PBS for oral inoculation into hamsters.
All studies were performed in accordance with protocols that were approved by the Institutional Animal Care and Use Committee. […] One day later (Day 0), animals were infected orally with […] CD spores.
1) Starting on Day 1 post-infection (PI), a single dose of either vehicle, vancomycin (VA) (50 mg/kg/day), or oritavancin (ORI) formulated in 10% hydroxypropyl β-cyclodextrin (HPCD) (10, 50 or 100 mg/kg/day) was administered to the hamsters (n=10/group) by gavage for 5 days.
Detection of CD cells and toxins were detected in the caecal contents of animals at both the experimental and clinical endpoints. Presence of CD toxins (toxin A and B) were detected by using the CD TOX A/B IITM kit (Techlab) as described by the manufacturer. Limit of detection was ≧0.8 ng/mL for Toxin A and ≧2.5 ng/mL of Toxin B. Total viable cells (TC) (both vegetative and spore forms) were enumerated by serially diluting the caecal content by 10 fold in PBS containing 2% oxyrase (Oxyrase Inc). The caecal content dilutions were plated on Brazier's CCEY lysozyme agar (Lab160) without egg yolk. CD spores were counted by treating caecum samples with an equal volume of pure ethanol. The limit of detection (LOD) was 1.47 and 1.77 Log 10 CFU/g caecal content for TC and spores, respectively.
Data were analyzed by Kaplan-Meier and Log rank Wilcoxon tests survival analysis by using GraphPad Prism (version 5.00). A p-value lower than 0.05 (p<0.05) was considered to indicate statistical significance.

By MIC90 is commonly meant the lowest concentration that inhibits either 90% of growth or 90% of the strains tested, depending on the study. Low readings indicate greater potency, high ones weaker potency. The MIC is the lowest concentration that inhibits growth of the organism. As to `CN[C@H](CC(C)C)C(=O)N[C@H]1C(=O)N[C@@H](CC(N)=O)C(=O)N[C@H]2C(=O)N[C@H]3C(=O)N[C@H](C(=O)N[C@H](C(=O)O)c4cc(O)cc(O)c4-c4cc3ccc4O)[C@H](O[C@H]3C[C@](C)(N)[C@@H](O)[C@H](C)O3)c3ccc(c(Cl)c3)Oc3cc2cc(c3O[C@@H]2O[C@H](CO)[C@@H](O)[C@H](O)[C@H]2O[C@H]2C[C@](C)(NCc3ccc(-c4ccc(Cl)cc4)cc3)[C@@H](O)[C@H](C)O2)Oc2ccc(cc2Cl)[C@H]1O` [oritavancin, N-(4-(4-chlorophenyl)benzyl)A82846B], the “Recovery of C. difficile spores following exposure” value in the test with C. difficile spores is given as “not recovered”. For the same compound, in test [1], the “Broth macrodilution MICs lower than agar incorporation MICs” value was 2- to 4 fold, the “Broth macrodilution geometric mean MICs lower than those for metronidazole” value was approximately 2 fold, the “Broth macrodilution geometric mean MICs lower than those for vancomycin” value is approximately 5 fold and the “Tested isolates more susceptible (≧2 doubling dilutions) than to vancomycin” value was found to be 76%. Further, in test [1], the MIC range fell in the range of 0.06 to 1 µg/mL, the MIC90 amounted to 1 µg/mL (≈ 0.558 µM) and the MIC is 0.31 µg/mL (≈ 0.173 µM). The compound further gave an MIC against S. aureus NCTC 6571 of approximately 4 µg/mL (≈ 2.23 µM). The “Effect of antibiotic-exposed C. difficile spores on growth of Oxford S. aureus” value in the test with Oxford S. aureus is “inhibitory to growth”. In addition, the “Survival prolonged more than untreated animals” value in test [2] (10 mg/kg once daily for 5 days) turned out to be 9 days. In addition, the “Survival prolonged more than untreated animals” value in test [2] (50 mg/kg once daily for 5 days) was determined as 13 days. Moreover, in test [2] (100 mg/kg once daily for 5 days), the “Survival prolonged more than untreated animals” value was more than 17 days. For the same compound, the “Efficacy compared to VA on Day 12 PI” value in test [2] (100 mg/kg, HPCD) was “superior efficacy”. The compound further came in with a Mean survival time in test [2] of 17 days.
Turning to `CN[C@H](CC(C)C)C(=O)N[C@H]1C(=O)N[C@@H](CC(N)=O)C(=O)N[C@H]2C(=O)N[C@H]3C(=O)N[C@H](C(=O)N[C@H](C(=O)O)c4cc(O)cc(O)c4-c4cc3ccc4O)[C@H](O)c3ccc(c(Cl)c3)Oc3cc2cc(c3O[C@@H]2O[C@H](CO)[C@@H](O)[C@H](O)[C@H]2O[C@H]2C[C@](C)(N)[C@H](O)[C@H](C)O2)Oc2ccc(cc2Cl)[C@H]1O` [vancomycin], in test [1], the MIC range is 0.5 to 2 µg/mL, the MIC90 is 2 µg/mL (≈ 1.38 µM) and the MIC came out at 1.58 µg/mL (≈ 1.09 µM). The compound further came in with a Mean survival time in test [2] of 12 days.
